Measurements from US20210106567A1, “COMPOSITIONS AND METHODS FOR INHIBITING CARP-1 BINDING TO NEMO” (United States Government As Represented By The Department …, priority 2019, published 2021).
pIC50: −log10 of the molar value.

Legend:
[1] = molecular target: T1, His-TAT-HA-CARP-1 (551-580) binding with Gst-NEMO (221-261) (Homo sapiens, UniProt Q8IX12); experiment: Pull-down and Western blot with E. coli expressed peptides; settings: then washed
T1 construct: His-TAT-HA-CARP-1 (551-580); made in house; host or cells: E. coli BL21
Procedure: (§1) The biochemical mechanism of inhibition of CARP-1 (551-580; SEQ ID NO: 6) binding with NEMO (221-261; SEQ ID NO: 2) by SNI-1 was assessed. E. coli expressed Gst-NEMO (221-261; SEQ ID NO: 2) and His-TAT-HA-CARP-1 (551-580; SEQ ID NO: 6) peptides in IP-WB assays were used. […] Since Adriamycin activates ATM to regulate canonical NF-κB and DSB repair pathways, it remains to be clarified whether CARP-1 regulates RIPK1 signaling dependent and/or independent of ATM.
(§2) The cells were lysed to prepare protein extracts.

[2] = molecular target: T2, NEMO interaction with CARP-1 (Homo sapiens, UniProt Q8IX12); experiment: IP-WB in Gst-NEMO expressing HBC cells, CARP-1; assay type: cell-based; settings: alone or in combination with Adriamycin
T2 construct: expressed in transfected cells; host or cells: HBC cells stably expressing Gst-NEMO
Procedure: as §1, §2

[3] = molecular target: T3, NEMO interaction with RIPK1 (Homo sapiens, UniProt Q13546+Q9Y6K9); experiment: IP-WB in Gst-NEMO expressing HBC cells, RIPK1; assay type: cell-based; settings: alone or in combination with Adriamycin
T3 construct: expressed in transfected cells; host or cells: HBC cells stably expressing Gst-NEMO
Procedure: as §1, §2

[4] = system: diffuse large B cell lymphoma cells; experiment: Cell viability, lymphoma; assay type: cell-based; settings: Homo sapiens, read-out: IC50, reduced viabilities
[5] = system: follicular cell lymphoma cells; experiment: Cell viability, lymphoma; assay type: cell-based; settings: Homo sapiens; read-out: IC50, reduced viabilities
[6] = system: mammospheres derived from human TNBC PDX tumors; experiment: Three-dimensional mammosphere assay (MTT); assay type: cell-based; settings: SNI-1 2.5 or 5.0 μM, Adriamycin 5 μM, 48 h
Procedure: Three-dimensional Mammosphere Assays: The PDX tumor cells were dissociated from the tumor fragments, and cultured for 2-dimensional and mammosphere studies in vitro (Cheriyan et al. (2016) Oncotarget 7, 73370-73388). Briefly, the cells were washed twice in 1×PBS, trypsinized, and pelleted at 200×g at room temperature. Cells were then re-suspended in 5 ml of mammosphere media (DMEM/F12 containing 2 mM L-glutamine, 100 U/ml penicillin, 100 U/ml streptomycin, 1×B27 supplement, 20 ng/ml recombinant human epidermal growth factor (EGF; Sigma), 10 ng/ml recombinant human basic fibroblast growth factor (bFGF; R&D Systems). Approximately 5000 viable cells per ml was then seeded in an ultra-low adherent 60 mm plate and incubated at 37° C. and 5% CO2 for two weeks without disturbing the plates. After the mammospheres formed, fresh media with or without Adriamycin (5 μM), SNI-1 (2.5 or 5.0 μM), or a combination of these agents was added and the cells incubated for additional 48 h at 37° C. and 5% CO2. The mammospheres in the untreated and treated plates were photographed, and the cells were then dissociated to determine their viabilities by the MTT assay (Cheriyan et al. (2016) Oncotarget 7, 73370-73388).

MTT cell viability = assay type: cell-based; settings: human, wild-type HeLa cells; read-out: reduction in the viabilities
HeLa CARP-1 ko cells = experiment: MTT cell viability; assay type: cell-based, human
HeLa NEMO ko cells = experiment: MTT cell viability; assay type: cell-based, human
[7] = system: CARP-1 levels, cleavage of PARP or caspase-3; experiment: Western blot for apoptosis markers; assay type: cell-based
Source text: as §2

[8] = system: p65/RelA activation and phosphorylation of NEMO; experiment: Western blot for canonical NF-κB activation; assay type: cell-based; settings: in presence of SNI-1
Source text: as §2

cleaved RIPK1 = experiment: Western blot for RIPK1 cleavage; assay type: cell-based
Source text: as §2

human TNBC cells = experiment: Cytokine ELISA of culture media; assay type: cell-based; settings: versus untreated cells
murine TNBC cells = experiment: Cytokine ELISA of culture media; assay type: cell-based; settings: single agent
[9] = system: parental and chemo-resistant human and murine TNBC cells and parental renal cancer cells; experiment: Cytokine ELISA of culture media, chemotherapy-induced secretion; assay type: cell-based; settings: SNI-1 with Adriamycin or Cisplatin
[10] = Dose-route determination in non-tumor-bearing mice; assay type: in vivo, mouse; settings: 5% DMSO, 5% ethanol, 2% Tween 80 formulation
MDA-MB-468 TNBC cells = experiment: MTT cell viability, SNI-1 analogs; assay type: cell-based, human; settings: 24 h
Procedure: FIGS. 22A-B show SNI-1 analogs enhance Adriamycin inhibition of TNBC cell growth. FIGS. 22A-B show cells treated with indicated dose of noted agent for 24 h, and their viabilities determined by MTT assay. Columns represent means of three independent experiments; bars, SE.
MDA-MB-468 TNBC cells were next treated with each of the analog in vitro as a single agent or in combination with Adriamycin in vitro.

MDR1 = experiment: Levels of drug efflux pump MDR1; assay type: cell-based, human; settings: MDA-MB-468 cells
Source text: Of note is that SNI-1 in combination with Adriamycin provoked a greater inhibition of tumor growth when compared with the tumor growth inhibition noted in animals treated with either agent alone. […] Since TNBCs and many other cancers are often known to express drug efflux pumps that contribute to lower efficacy of drugs in clinic and development of drug-resistant tumors, it is likely that the presence/expression of these drug efflux pumps function in part to interfere with a robust anti-tumor response to a combination of SNI-1 and Adriamycin.

[11] = system: SUM149 cell-derived xenografts; experiment: SUM149 BRCA1-mutant TNBC xenografts in NCr-SCID mice; assay type: in vivo; settings: 70 mg/kg daily×13, i.p. (parent) or i.v. (sodium salt)
Source text: BRCA1 mutant TNBC Tumor Model: Testing for germline BRCA1/2 mutations permits identification of BRCA1/2 status as clinically relevant in the selection of therapy for patients already diagnosed with breast cancer. BRCA status predicts responsiveness to platinum-based chemotherapy, as well as to inhibitors of poly(ADP-ribose) polymerase (PARP) in breast and ovarian cancers. […] A related objective of this pilot study was to determine whether and to the extent SNI-1 or its water soluble, di-sodium derivative will elicit effects in vivo.

T1 sequence (Q8IX12 551-580 limits assumed): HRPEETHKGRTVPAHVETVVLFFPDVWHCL
T2 sequence (Q8IX12 whole entry): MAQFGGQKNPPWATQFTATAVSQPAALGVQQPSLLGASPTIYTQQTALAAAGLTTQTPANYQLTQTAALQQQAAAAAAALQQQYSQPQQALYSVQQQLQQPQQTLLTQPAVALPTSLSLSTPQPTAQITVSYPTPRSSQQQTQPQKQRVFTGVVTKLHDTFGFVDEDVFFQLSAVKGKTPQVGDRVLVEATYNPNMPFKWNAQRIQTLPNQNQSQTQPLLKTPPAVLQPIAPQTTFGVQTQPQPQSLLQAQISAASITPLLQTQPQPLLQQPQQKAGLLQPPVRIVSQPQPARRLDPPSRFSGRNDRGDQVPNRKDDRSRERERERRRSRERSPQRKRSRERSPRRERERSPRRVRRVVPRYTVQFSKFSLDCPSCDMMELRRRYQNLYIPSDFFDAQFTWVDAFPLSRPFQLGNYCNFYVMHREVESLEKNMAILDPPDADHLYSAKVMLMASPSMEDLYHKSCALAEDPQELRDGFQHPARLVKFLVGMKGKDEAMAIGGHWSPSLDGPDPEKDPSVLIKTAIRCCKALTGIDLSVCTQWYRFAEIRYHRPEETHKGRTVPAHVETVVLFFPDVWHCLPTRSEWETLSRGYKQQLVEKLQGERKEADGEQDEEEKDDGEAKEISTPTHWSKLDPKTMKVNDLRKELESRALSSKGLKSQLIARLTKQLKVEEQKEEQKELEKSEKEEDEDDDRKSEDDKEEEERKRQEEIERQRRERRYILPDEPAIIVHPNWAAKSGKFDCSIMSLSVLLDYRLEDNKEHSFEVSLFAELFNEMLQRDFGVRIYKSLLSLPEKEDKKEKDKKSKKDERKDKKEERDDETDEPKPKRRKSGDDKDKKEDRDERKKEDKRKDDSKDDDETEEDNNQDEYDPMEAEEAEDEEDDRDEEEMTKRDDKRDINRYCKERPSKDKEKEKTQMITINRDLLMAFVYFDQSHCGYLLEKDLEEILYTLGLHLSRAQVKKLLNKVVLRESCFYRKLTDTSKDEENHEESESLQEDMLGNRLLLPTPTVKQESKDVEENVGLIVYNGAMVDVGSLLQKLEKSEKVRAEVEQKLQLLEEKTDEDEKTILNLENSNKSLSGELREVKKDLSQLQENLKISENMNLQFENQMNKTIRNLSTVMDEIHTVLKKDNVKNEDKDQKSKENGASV
T3 sequence (Q9Y6K9 whole entry): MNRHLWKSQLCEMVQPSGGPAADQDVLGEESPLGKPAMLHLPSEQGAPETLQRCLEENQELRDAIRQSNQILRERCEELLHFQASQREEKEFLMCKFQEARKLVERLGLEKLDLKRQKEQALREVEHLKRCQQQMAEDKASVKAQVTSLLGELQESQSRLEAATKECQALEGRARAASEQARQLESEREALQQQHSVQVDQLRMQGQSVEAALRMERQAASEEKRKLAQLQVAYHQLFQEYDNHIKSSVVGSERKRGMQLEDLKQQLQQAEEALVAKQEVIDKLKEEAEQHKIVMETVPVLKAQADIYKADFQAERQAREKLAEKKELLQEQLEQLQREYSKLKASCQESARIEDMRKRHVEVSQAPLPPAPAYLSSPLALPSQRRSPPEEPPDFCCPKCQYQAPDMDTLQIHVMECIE
T3 sequence (Q13546 whole entry): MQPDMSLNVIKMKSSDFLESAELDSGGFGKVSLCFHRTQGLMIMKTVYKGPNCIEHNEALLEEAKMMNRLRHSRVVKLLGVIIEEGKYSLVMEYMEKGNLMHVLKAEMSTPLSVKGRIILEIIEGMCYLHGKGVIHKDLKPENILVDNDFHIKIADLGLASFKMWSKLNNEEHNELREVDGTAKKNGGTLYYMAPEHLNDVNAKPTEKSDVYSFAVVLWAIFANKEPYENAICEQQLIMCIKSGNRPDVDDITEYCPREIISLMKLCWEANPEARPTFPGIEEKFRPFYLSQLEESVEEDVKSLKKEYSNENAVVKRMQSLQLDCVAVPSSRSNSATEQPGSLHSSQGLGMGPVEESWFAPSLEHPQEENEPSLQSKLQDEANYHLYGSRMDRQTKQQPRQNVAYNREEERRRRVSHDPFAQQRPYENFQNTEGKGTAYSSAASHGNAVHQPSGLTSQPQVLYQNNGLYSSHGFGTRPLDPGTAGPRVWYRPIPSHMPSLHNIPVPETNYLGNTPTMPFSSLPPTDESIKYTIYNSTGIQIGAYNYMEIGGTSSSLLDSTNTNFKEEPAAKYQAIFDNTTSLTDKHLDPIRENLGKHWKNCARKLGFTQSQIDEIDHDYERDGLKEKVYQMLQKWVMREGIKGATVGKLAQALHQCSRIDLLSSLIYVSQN

For `Cc1ccc(-n2nnnc2SCC(=O)c2ccc(O)c(O)c2)cc1` [SNI-1, 1-(3,4-dihydroxyphenyl)-2-{(1-(4-methylphenyl)-1H-tetrazol-5-yl)thio}ethanone], the “binding of Gst-NEMO (221-261) with His-TAT-HA-CARP-1 (551-580) peptide” value ([1]; compound incubated with CARP-1 peptide immobilized on Ni-NTA beads) was “abrogated binding”, the “binding of His-TAT-HA-CARP-1 (551-580) with Gst-NEMO (221-261) peptide” value ([1]; compound incubated with Gst-NEMO peptide immobilized on Gst sepharose beads) was “failed to abrogate binding” and the “NEMO interaction with CARP-1 (IP-WB)” value [2] was “abrogated NEMO interaction with CARP-1”. For the same compound, the “NEMO interaction with RIPK1 (IP-WB)” value [3] was “not with RIPK1”, the pIC50 [4] was ~5.00 and the pIC50 [5] was ~5.12. For the same compound, the “growth/viability of mammospheres” value [6] was “failed to inhibit growth of mammospheres”, the cytotoxicity (MTT cell viability) was ~30% and the loss of viabilities (HeLa CARP-1 ko cells) was “failed to provoke any loss of viabilities”. For the same compound, the “loss of viabilities versus similarly treated wild-type HeLa cells” value (HeLa NEMO ko cells) was “further significant loss of viabilities”, the “apoptosis (elevated CARP-1 levels, cleavage of PARP or caspase-3)” value [7] was “stimulation of apoptosis” and the “p65 activation and NEMO phosphorylation by Adriamycin or Cisplatin” value [8] was “diminished p65 activation and NEMO phosphorylation”. For the same compound, the “expression of cleaved RIPK1” value (cleaved RIPK1) was “induced expression of cleaved RIPK1”, the “levels of TNFα and IL-8 in culture media” value (human TNBC cells) was “modest increase” and the “secretion of TNFα and IL-1β” value (murine TNBC cells) was “failed to cause increase”. The “secretion of chemotherapy-induced TNFα, IL-8, and IL-1β” value [9] was “robust decline in secretion”, the “suitability for chronic intravenous administration” value [10] was “not suitable for chronic intravenous administration” and the “loss of cell viability in combination with Adriamycin versus Adriamycin alone” value (MDA-MB-468 TNBC cells) was “greater loss of cell viability”. The “levels of drug efflux pump MDR1” value (MDR1) was “robust increase” and the tolerability [11] was “well tolerated”.
